Reference: ChEMBL document CHEMBL1201862, “PubChem BioAssay data set” (2004)
Activity calls are given as the source filed them.

Key:
[1] = target: T1, Estrogen receptor beta (Homo sapiens, UniProt Q92731);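 also: recombinant ER-beta bound to coactivator SRC1 peptide in presence of estradiol agonist; inhibitors block coactivator peptide binding and lower the FRET signal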
[2] = target: T1, Estrogen receptor beta; assay: ERβ–SRC-3 coactivator interaction inhibitors, confirmation, orthogonal assay, biochemical, ELISA, streptavidin-HRP readout (AID 1060)
[3] = target: T2, Cytochrome P450 3A4 (Homo sapiens, UniProt P08684); conditions: Potency
T2 sequence (P08684 whole entry): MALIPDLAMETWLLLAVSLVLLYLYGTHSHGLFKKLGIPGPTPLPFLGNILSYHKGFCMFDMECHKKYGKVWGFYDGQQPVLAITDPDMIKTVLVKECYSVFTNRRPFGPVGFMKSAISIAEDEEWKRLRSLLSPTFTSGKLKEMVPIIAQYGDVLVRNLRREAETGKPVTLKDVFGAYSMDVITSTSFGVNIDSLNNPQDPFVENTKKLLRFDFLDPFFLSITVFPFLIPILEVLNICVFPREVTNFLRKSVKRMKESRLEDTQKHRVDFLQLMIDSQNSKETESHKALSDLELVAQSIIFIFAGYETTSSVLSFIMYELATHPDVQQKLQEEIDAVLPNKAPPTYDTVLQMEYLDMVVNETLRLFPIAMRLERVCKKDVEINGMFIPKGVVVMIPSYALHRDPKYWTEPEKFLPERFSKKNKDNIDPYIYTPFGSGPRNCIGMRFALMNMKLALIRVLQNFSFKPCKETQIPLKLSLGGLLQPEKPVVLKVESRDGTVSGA

[4] = target: 5-hydroxytryptamine receptor 1A (Homo sapiens, UniProt P08908); format: functional
Chain of 5-hydroxytryptamine receptor 1A (P08908 whole entry): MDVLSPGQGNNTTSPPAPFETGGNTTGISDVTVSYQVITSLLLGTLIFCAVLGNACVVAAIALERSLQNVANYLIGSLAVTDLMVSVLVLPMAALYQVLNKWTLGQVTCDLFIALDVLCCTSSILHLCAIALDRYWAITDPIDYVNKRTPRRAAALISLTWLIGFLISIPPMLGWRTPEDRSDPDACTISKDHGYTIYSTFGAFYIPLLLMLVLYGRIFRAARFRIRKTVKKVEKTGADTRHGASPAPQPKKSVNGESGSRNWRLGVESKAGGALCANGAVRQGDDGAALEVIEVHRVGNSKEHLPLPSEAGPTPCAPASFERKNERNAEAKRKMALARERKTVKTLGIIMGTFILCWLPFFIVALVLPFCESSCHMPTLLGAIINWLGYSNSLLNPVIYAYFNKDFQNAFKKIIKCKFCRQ

[5] = target: Cytochrome P450 2C9 (Homo sapiens, UniProt P11712); conditions: Potency
[6] = target: 5-hydroxytryptamine receptor 1E (Homo sapiens, UniProt P28566); assay: Counterscreen assay for S1P3 antagonists: Dose response cell-based high throughput screening assay to identify antagonists of the 5-Hydroxytryptamine Receptor Subtype 1E (5HT1E). [Related pubchem assays: 1429, 485 ]; format: functional
Chain of 5-hydroxytryptamine receptor 1E (P28566 whole entry): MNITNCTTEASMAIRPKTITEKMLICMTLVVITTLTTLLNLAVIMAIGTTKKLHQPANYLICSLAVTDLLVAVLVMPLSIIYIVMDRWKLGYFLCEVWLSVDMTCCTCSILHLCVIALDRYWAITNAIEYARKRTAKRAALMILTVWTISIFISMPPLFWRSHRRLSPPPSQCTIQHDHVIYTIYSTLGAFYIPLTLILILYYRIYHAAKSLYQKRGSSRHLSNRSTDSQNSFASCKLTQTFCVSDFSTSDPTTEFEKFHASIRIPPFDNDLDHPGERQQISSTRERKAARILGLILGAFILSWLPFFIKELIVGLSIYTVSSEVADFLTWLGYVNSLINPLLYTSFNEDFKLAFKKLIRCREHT

[7] = target: Sphingosine 1-phosphate receptor 3 (Homo sapiens, UniProt Q99500); assay: Dose response cell-based high throughput screening assay for antagonists of the Sphingosine 1-Phosphate Receptor 3 (S1P3). [Related pubchem assays: 1429, 485 ]; format: functional
Chain of Sphingosine 1-phosphate receptor 3 (Q99500 whole entry): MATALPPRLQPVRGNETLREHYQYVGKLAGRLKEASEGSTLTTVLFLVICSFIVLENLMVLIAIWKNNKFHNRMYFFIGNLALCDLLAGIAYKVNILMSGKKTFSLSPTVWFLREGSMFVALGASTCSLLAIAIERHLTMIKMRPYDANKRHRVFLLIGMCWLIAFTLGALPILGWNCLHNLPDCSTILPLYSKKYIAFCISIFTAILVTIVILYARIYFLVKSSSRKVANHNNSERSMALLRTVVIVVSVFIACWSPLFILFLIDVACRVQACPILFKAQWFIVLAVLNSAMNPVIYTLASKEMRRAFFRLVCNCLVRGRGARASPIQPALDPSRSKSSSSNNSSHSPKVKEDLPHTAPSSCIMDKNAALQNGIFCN

[8] = HEp-2 cell cytotoxicity, dose response, cytotoxicity control for RSV inhibitor project, HTS (AID 2410); format: functional; conditions: human respiratory syncytial virus
[9] = tested on: Vero; assay: cells; format: functional, cell-based; conditions: Chlorocebus sabaeus
[10] = cells
[11] = target: T2, Cytochrome P450 3A4
[12] = target: Ephrin type-A receptor 4 (Mus musculus, UniProt Q03137); assay: inhibitors of EphA4 binding to KYL peptide, primary screen, biochemical, colorimetric, mouse EphA4 (AID 689); format: functional
Chain of Ephrin type-A receptor 4 (Q03137 whole entry): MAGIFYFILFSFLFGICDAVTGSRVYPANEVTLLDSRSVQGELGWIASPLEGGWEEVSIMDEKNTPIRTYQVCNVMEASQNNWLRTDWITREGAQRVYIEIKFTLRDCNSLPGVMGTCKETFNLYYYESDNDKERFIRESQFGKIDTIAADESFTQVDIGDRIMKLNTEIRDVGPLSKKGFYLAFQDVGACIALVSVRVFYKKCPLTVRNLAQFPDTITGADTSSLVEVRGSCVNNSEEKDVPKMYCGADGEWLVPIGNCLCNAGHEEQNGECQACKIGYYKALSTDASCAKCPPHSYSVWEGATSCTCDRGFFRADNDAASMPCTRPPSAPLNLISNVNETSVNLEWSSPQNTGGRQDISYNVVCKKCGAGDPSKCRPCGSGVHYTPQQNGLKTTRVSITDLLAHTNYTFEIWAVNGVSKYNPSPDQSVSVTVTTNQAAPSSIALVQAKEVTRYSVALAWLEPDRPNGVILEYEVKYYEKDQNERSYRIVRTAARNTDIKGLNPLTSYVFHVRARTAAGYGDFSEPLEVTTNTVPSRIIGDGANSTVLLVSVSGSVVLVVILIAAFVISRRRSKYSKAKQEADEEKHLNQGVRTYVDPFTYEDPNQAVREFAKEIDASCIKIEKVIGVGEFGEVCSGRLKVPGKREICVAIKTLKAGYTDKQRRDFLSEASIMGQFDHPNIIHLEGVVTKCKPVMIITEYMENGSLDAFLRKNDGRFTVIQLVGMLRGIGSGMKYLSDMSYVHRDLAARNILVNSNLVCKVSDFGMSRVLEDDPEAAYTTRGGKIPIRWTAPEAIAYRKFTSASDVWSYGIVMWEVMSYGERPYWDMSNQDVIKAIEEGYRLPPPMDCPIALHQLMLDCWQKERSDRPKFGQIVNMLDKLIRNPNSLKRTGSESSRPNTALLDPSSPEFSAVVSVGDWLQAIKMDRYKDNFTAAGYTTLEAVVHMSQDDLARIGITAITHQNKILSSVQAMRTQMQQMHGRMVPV

[13] = target: Cytochrome P450 2C19 (Homo sapiens, UniProt P33261); assay: Cytochrome panel assay with activity outcomes. Panel member name: p450-cyp2c19 Compounds with AC50 equal or less than 10 uM are considered active; format: functional; conditions: read-out: AC50
[14] = target: Kallikrein-7 (Homo sapiens, UniProt P49862); assay: Fluorescence Intensity-based biochemical primary high throughput dose response assay to identify activators of kallikrein-7 (K7) zymogen.
Chain of Kallikrein-7 (P49862 whole entry): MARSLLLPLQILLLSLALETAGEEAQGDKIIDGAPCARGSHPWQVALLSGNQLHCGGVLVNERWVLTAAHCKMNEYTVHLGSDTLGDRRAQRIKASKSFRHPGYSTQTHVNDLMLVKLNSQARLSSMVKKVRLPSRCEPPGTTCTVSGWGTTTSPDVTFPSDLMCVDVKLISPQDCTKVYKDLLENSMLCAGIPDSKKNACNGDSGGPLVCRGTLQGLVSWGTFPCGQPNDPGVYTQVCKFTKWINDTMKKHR

[15] = target: Nonstructural protein 1 (Influenza A virus, UniProt Q194T2); format: functional, Influenza A virus (A/California/07/2009(H1N1))
Chain of Nonstructural protein 1 (Q194T2 whole entry): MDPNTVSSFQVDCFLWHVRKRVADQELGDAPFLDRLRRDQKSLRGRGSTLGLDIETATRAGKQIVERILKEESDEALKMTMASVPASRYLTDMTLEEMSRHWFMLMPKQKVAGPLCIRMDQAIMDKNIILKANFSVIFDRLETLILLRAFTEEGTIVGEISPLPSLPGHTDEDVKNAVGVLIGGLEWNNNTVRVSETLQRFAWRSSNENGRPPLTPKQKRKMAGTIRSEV

[16] = target: Protein-tyrosine kinase 2-beta (Homo sapiens, UniProt Q14289);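 also: potency of inhibitors of PYK2 kinase phosphorylation of poly-GT substrate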
Chain of Protein-tyrosine kinase 2-beta (Q14289 whole entry): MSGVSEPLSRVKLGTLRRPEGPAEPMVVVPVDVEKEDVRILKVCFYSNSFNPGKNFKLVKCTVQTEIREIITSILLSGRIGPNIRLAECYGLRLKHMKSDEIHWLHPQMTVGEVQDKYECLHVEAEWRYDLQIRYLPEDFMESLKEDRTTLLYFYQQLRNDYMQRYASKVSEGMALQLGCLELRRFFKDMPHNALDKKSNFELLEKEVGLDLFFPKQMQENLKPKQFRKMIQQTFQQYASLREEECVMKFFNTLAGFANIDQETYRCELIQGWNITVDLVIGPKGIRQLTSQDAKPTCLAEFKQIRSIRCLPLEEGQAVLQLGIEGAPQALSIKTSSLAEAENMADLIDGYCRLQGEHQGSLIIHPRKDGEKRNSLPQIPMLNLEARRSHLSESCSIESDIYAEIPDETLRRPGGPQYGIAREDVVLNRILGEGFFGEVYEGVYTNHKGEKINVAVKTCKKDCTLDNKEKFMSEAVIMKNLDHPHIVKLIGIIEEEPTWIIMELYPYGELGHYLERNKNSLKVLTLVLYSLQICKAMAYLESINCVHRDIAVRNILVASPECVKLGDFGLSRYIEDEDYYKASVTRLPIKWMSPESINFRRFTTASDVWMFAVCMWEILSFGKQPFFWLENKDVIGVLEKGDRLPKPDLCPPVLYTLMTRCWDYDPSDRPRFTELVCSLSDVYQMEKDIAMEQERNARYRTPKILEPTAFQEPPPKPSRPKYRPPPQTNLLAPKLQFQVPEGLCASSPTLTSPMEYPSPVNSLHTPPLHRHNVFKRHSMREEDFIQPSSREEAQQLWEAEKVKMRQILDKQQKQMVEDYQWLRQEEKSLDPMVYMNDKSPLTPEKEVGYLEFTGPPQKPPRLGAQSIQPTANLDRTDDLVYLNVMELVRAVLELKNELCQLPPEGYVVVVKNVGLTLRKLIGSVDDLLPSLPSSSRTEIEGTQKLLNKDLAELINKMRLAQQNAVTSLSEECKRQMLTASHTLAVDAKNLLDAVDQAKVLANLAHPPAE

[17] = cells; format: functional, cell-based; conditions: HEK-CNG
[18] = target: T3, Galanin receptor type 3 (Homo sapiens, UniProt O60755); assay: Fluorescence-based cell-based primary high throughput dose response assay to identify antagonists of the Galanin Receptor 3 (GalR3).; format: functional
T3 sequence (O60755 whole entry): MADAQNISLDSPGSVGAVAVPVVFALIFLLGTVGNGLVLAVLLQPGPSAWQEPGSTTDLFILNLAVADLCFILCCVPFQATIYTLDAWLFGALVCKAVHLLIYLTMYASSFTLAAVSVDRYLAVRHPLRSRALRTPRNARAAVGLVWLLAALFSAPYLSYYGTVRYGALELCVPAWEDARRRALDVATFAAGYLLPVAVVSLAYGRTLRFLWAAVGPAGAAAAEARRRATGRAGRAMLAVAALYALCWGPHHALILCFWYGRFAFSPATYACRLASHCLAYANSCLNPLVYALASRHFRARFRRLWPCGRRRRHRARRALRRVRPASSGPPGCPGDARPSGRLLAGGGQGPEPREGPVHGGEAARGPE

[19] = Glucagon-like peptide 1 release potency, NCI-H716 cell line, dose-response, half-maximal inhibitory concentration (AID 1117344); format: functional, cell-based
[20] = half-maximal inhibitory concentration for glucagon-like peptide-1 release, STC-1 cell line, dose-response (AID 1117345); format: functional, cell-based
[21] = inhibitors of intracellular T. cruzi replication, confirmation, NIH3T3 host cells, beta-gal luminescence (AID 2044); format: functional, cell-based;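 also: intracellular parasites grown in NIH/3T3 mouse fibroblasts as host cells; luminescent beta-galactosidase reporter signal from transgenic T. cruzi replicating inside host cells; inhibitors lower the luminescence signal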
[22] = cells; remark: listed apart in the source
[23] = cytotoxicity toward NIH3T3 fibroblasts, dose response, counter-screen, cell-based, ATP luminescence, mouse fibroblasts (AID 2010); format: functional;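 also: cells exposed to compound for about 90 hours before reading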

T1 sequence (Q92731 whole entry): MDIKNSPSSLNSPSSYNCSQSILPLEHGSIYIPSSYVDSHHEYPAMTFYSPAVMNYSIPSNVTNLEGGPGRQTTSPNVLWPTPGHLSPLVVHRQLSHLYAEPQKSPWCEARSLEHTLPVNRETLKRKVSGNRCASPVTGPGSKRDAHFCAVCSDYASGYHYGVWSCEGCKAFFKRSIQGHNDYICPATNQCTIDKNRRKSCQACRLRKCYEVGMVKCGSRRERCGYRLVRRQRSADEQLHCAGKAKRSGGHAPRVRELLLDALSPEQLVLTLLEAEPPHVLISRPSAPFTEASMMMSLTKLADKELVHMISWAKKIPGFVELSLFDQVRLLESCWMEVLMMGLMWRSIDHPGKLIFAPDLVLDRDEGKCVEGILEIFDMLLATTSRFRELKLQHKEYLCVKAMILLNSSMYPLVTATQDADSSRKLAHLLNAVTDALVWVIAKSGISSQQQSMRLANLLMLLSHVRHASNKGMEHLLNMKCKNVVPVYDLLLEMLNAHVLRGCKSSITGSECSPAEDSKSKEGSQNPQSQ

With c1coc(-c2nnc3sc(Cc4cccs4)nn23)c1 the IC50 [1] was < 1.56 µM (active) and the IC50 [2] was 4.41 µM (not active).
For Cc1nc(N2CCOCC2)c2nc(-c3ccccc3)n(C(C)CN(C)C)c2n1 (configuration not stated), the AC50 [3] was 20 µM (inconclusive).
With Cn1cc(/C(Cc2ccccc2)=N\O)c2ccccc21 the EC50 [4] was > 50 µM (not active).
For CC(C)[C@]1(NC(=O)[C@H]2C=C3c4cccc5[nH]cc(c45)C[C@H]3N(C)C2)O[C@@]2(O)[C@H]3CCCN3C(=O)[C@H](Cc3ccccc3)N2C1=O, the AC50 [5] was 7.94 µM (inconclusive).
In the case of CCc1ccccc1NC1c2ccccc2C(=O)N1Cc1ccco1 (configuration not stated), the IC50 [6] is reported as 15.6 µM (not active) and the IC50 [7] is reported as > 50 µM (not active).
For O=C(CCNC(=O)c1ccc(Cl)cc1)NC1CCCc2ccccc21 (configuration not stated), the CC50 [8] was 40.2 µM (active), the IC50 [9] was 19.8 µM (active) and the IC50 [10] was 13.4 µM (active).
With Cc1ccc(NC(=O)C(C)c2ccc([N+](=O)[O-])cc2)cc1Cl (configuration not stated) the IC50 [6] was 13.4 µM (not active) and the IC50 [7] was 11.3 µM (not active).
In the case of CCc1nn(C(C)C(=O)NCCN2CCN(c3cccc(C)c3C)CC2)c(=O)c2cc3occc3n12 (configuration not stated), the EC50 [4] is reported as > 50 µM (not active).
For CC1Cc2ccccc2N1Cc1nc(O)c2ccc(C(F)(F)F)cc2n1 (configuration not stated), the AC50 [11] was 25.1 µM (inconclusive), the IC50 [12] was > 100 µM (not active) and the AC50 [13] was 0.0282 µM (inconclusive).
With Cc1cccc2c(C(=O)O)c3cccc(C)c3nc12 the EC50 [14] was > 69.5 µM (inactive).
In the case of CN(C)c1cc2c(c(N(C)C)c1)C(=O)c1ccccc1C2=O, the IC50 [15] is reported as 14.1 µM (active) and the IC50 [16] is reported as 2.13 µM (active).
With CC(=O)OC(C)C[N+](C)(C)C (configuration not stated) [METHACHOLINE CHLORIDE] the EC50 [17] was > 30 µM (inactive), the IC50 [18] was 7.36 µM (active) and the IC50 [19] was > 40 µM (inactive). For the same compound, the IC50 [20] was > 40 µM (inactive).
For CNC(=O)[C@@H]1C[C@H]1[C@@H](NC(=O)CNC(=O)OCc1ccccc1)c1ccccc1, the AC50 [3] was 15.8 µM (inconclusive).
With COc1ccc(/C=C/CN2CCCC(CCC(=O)NCc3ccc(F)c(F)c3)C2)cc1 (configuration not stated) the EC50 [21] was < 0.1 µM (active), the EC50 [22] was 0.037 µM (active) and the EC50 [23] was > 60 µM (not active).
